Results from patent publication US12528801B2 (Givaudan SA, priority 2019, dated 2026).
pEC50: −log10 of the molar value.

How the values were obtained:
[1] = target: T1, hTRPM8 (Homo sapiens, UniProt Q7Z2W7); assay: Assay on TRPM8 modulators: calcium imaging (Fluo-4, Flexstation) in HEK293 cell line stably expressing hTRPM8; format: cell-based; details: HEK293 cells stably expressing hTRPM8; calcium influx, Fluo-4, Flexstation 3; sigmoidal dose-response fit
T1 construct: expressed in transfected cells
T1 sequence (Q7Z2W7 whole entry): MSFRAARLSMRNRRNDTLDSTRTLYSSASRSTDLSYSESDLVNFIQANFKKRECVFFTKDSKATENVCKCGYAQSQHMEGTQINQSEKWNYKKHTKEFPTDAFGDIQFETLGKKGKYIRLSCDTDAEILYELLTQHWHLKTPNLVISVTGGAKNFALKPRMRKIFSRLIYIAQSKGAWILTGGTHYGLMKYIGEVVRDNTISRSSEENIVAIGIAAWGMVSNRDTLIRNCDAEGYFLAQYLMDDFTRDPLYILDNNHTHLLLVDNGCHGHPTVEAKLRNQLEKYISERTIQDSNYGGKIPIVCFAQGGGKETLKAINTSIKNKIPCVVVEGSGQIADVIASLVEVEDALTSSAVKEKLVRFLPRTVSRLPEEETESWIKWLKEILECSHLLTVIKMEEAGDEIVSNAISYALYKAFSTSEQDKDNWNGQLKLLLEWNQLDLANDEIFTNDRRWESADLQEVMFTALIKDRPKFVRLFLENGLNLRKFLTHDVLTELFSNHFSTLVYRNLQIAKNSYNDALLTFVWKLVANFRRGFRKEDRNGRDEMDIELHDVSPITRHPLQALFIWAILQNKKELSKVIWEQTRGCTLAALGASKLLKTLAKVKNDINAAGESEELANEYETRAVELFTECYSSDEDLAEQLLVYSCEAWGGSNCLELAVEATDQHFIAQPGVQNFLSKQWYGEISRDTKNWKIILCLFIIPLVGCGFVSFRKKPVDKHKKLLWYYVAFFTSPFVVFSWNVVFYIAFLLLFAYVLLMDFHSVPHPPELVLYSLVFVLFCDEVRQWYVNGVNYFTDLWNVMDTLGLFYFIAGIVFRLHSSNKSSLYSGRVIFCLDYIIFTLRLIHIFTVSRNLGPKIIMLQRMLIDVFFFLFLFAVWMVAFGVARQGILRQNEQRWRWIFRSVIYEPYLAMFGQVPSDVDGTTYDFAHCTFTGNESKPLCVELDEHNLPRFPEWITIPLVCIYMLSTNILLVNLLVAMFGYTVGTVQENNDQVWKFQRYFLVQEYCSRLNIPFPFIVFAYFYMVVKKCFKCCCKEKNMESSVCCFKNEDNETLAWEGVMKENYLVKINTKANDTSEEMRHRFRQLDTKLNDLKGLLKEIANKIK
In short: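 HEK293 cells stably expressing hTRPM8 were loaded with Fluo-4 AM plus probenecid and kept in HEPES buffer, pH 7.4. Calcium influx to serially diluted compounds was recorded for 120 s. Maximal activation was referenced to solvent control and 31.6 μM menthol, with EC values from sigmoidal dose-response fits.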

[2] = system: trained group of panelists; assay: Sensory studies in model dentifrice (trained panel, tooth brushing); format: in vivo, human; details: 40 ppm in model unflavored dentifrice; for Cooling after 1 h: 1 h after brushing; for Cooling after 1 h / Max. cooling: panel-averaged score 0 to 10; for Time of max. cooling / Max. cooling: brushing with 1 g for 60 seconds; for Max. cooling: stock in propylene glycol (A) or benzyl alcohol (B)
Procedure: The compounds listed in Table 3 were dissolved at a concentration of 1 wt-% in propylene glycol^A or benzyl alcohol^B (respective solvents indicated in Table 3). These solutions were then dispersed in appropriate quantities to obtain the desired final concentration of 40 ppm (parts per million) of the test compound into a model, unflavored dentifrice, the formula of which is given below (ingredients obtained from the suppliers respectively indicated in parenthesis).
A trained group of panelists evaluated the dentifrice containing a compound of formula (I), by brushing their teeth with 1 g of the dentifrice using a toothbrush for 60 seconds, followed by spitting, without rinsing the mouth afterwards for the duration of the evaluation. Panelists evaluated and recorded the cooling performance as well as other sensorial and organoleptic attributes at different timepoints over a period of two hours. Cooling performance was rated on a scale from 0 to 10 with 0 being no effect and 10 being freezing. Scores were averaged for all panelists and the cooling intensity qualified as “none” (score of 0), “low” (score above 0, up to 1), “medium” (score above 1, up to 4) “strong” (score above 4, up to 8) and “freezing” (score above 8), which are summarized below in Table 3.

[3] = system: trained group of panelists; assay: Sensory studies in aqueous solution (trained panel, mouth swill); format: in vivo, human; details: 10 ppm in aqueous solution; for Time of max. cooling / Max. cooling: 20 mL swilled in the mouth for 60 seconds; for Max. cooling / Cooling after 1 h: panel-averaged cooling score, scale 0 to 10; for Cooling after 1 h: 1 h after swilling
Procedure: The compounds as listed below in Table 2 were dissolved at a concentration of 1 wt-% in propylene glycol. These solutions were then dispensed in appropriate quantities into deionized water containing 0.5 wt-% Poloxamer 407 (which is a hydrophilic non-ionic surfactant, e.g., commercially available from SigmaAldrich) and 0.25 wt-% Cremaphor® RH40 (obtained from BASF) as solubilizer, to obtain the desired final concentration of 10 ppm (parts per million) of the respective compound.
A trained group of panelists evaluated the aqueous solutions containing test compound by swilling 20 mL of the solution in the mouth for 60 seconds, followed by spitting, without rinsing the mouth afterwards for the duration of the evaluation. Panelists evaluated and recorded the cooling performance as well as other sensorial and organoleptic attributes at different timepoints over a period of two hours. Cooling performance was rated on a scale from 0 to 10 with 0 being no effect and 10 being freezing. Scores were averaged for all panelists and the cooling intensity qualified as “none” (score of 0), “low” (score above 0, up to 1), “medium” (score above 1, up to 4) “strong” (score above 4, up to 8) and “freezing” (score above 8), which are provided in Table 2.

CS[C@H](C)C(=O)N1CCCC[C@@H]1c1ncc(-c2ccc(C)cc2)[nH]1 [Compound 11, (R)-2-(methylthio)-1-((R)-2-(5-(p-tolyl)-1H-imidazol-2-yl)piperidin-1-yl)propan-1-one]
pEC50 [1]: > 7.30
Cooling after 1 h [2]: M (M = medium)
Time of max. cooling [2]: 20 min
Max. cooling [2]: S (S = Strong)
Time of max. cooling [3]: 10 min
Max. cooling [3]: S (S = Strong)
Cooling after 1 h [3]: M (M = medium)

CCSC(C)C(=O)N1CCCCC1c1ncc(-c2ccc(C)cc2)[nH]1 (stereo not shown) [Compound 95, 2-(ethylthio)-1-(2-(5-(p-toly)-1H-imidazol-2-yl)piperidin-1-yl)propan-1-one]
pEC50 [1]: > 7.30
Cooling after 1 h [2]: L (L = Low)
Time of max. cooling [2]: 5 min
Max. cooling [2]: M (M = medium)
Time of max. cooling [3]: 10 min
Max. cooling [3]: M (M = medium)
Cooling after 1 h [3]: M (M = medium)

CSC(C)C(=O)N1CCCCC1c1ncc(-c2ccc(C(F)(F)F)cc2)[nH]1 (stereo not shown) [Compound 124, 2-(methylthio)-1-(2-(5-(4-(trifluoromethyl)phenyl)-1H-imidazol-2-yl)piperidin-1-yl)propan-1-one]
pEC50 [1]: > 7.30
Cooling after 1 h [2]: M (M = medium)
Time of max. cooling [2]: 30 min
Max. cooling [2]: M (M = medium)
Time of max. cooling [3]: 20 min
Max. cooling [3]: M (M = medium)
Cooling after 1 h [3]: M (M = medium)

CSC(C)C(=O)N1CCCCC1c1ncc(-c2ccc(C)cc2)[nH]1 (stereo not shown) [Compound 130, 2-(methylthio)-1-(2-(5-(p-toly)-1H-imidazol-2-yl)piperidin-1-yl)propan-1-one]
pEC50 [1]: > 7.30
Cooling after 1 h [2]: M (M = medium)
Time of max. cooling [2]: 20 min
Max. cooling [2]: S (S = Strong)
Time of max. cooling [3]: 20 min
Max. cooling [3]: S (S = Strong)
Cooling after 1 h [3]: M (M = medium)

C=CC(C)C(=O)N1CCCCC1c1ncc(-c2ccc(C)cc2)[nH]1 (stereo not shown) [Compound 163, 2-methyl-1-(2-(5-(p-tolyl)-1H-imidazol-2-yl)piperidin-1-yl)but-3-en-1-one]
pEC50 [1]: > 7.30
Cooling after 1 h [2]: M (M = medium)
Time of max. cooling [2]: 5 min
Max. cooling [2]: M (M = medium)
Time of max. cooling [3]: 10 min
Max. cooling [3]: S (S = Strong)
Cooling after 1 h [3]: M (M = medium)

CCC(C)C(=O)N1CCCCC1c1ncc(-c2ccc(C)cc2)[nH]1 (stereo not shown) [Compound 164, 2-methyl-1-(2-(5-(p-tolyl)-1H-imidazol-2-yl)piperidin-1-yl)butan-1-one]
pEC50 [1]: > 7.30
Cooling after 1 h [2]: M (M = medium)
Time of max. cooling [2]: 10 min
Max. cooling [2]: S (S = Strong)
Time of max. cooling [3]: 10 min
Max. cooling [3]: S (S = Strong)
Cooling after 1 h [3]: M (M = medium)

CC[C@H](C)C(=O)N1CCCCC1c1ncc(-c2ccc(C)cc2)[nH]1 (stereo partly drawn) [Compound 166, (2S)-2-methyl-1-(2-(5-(p-tolyl)-1H-imidazol-2-yl)piperidin-1-yl)butan-1-one]
pEC50 [1]: > 7.30
Cooling after 1 h [2]: M (M = medium)
Time of max. cooling [2]: 10 min
Max. cooling [2]: S (S = Strong)
Time of max. cooling [3]: 20 min
Max. cooling [3]: S (S = Strong)
Cooling after 1 h [3]: M (M = medium)
